In US20090143279A1 (priority 2007, published 2009):
Like-named read-outs stand apart in the source and are kept apart here.

What was measured:
[1] = test system: mitochondrial membrane potential; format: cell-based, mouse
nuOXPHOS transcripts = format: cell-based, mouse
reactive oxygen species = format: cell-based, mouse
cytochrome c = format: cell-based, mouse
mtOXPHOS transcripts = format: cell-based, mouse
[2] = test system: cellular dehydrogenase activity
OXPHOS gene expression = format: cell-based, mouse
[3] = 20 μM, composite Z-score vs DMSO
[4] = 27.18 μM, composite Z-score vs DMSO
[5] = composite Z-score vs DMSO, Conc 20 μM
[6] = normalized composite Z-score vs mock-treated (DMSO) wells, Conc 20 μM
[7] = Conc 20 μM, normalized score vs mock-treated (DMSO) wells
[8] = composite Z-score vs mock-treated (DMSO) wells, Conc 20 μM

## C[N+](C)(C)CCOC(N)=O [carbachol]
[1]; [3]
  ΔΨm: −0.965
[1]; [4]
  ΔΨm: −0.296
nuOXPHOS transcripts; [3]
  nucOX: 0.273
nuOXPHOS transcripts; [4]
  nucOX: −0.176
Reactive oxygen species; [3]
  ROS: 1.304
Reactive oxygen species; [4]
  ROS: 1.223
Cytochrome c; [3]
  cyt c: −0.154
Cytochrome c; [4]
  cyt c: −0.202
mtOXPHOS transcripts; [3]
  mitoOX: 0.391
mtOXPHOS transcripts; [4]
  mitoOX: 0.191
[2]; [3]
  MTT: −1.002
[2]; [4]
  MTT: 0.905
OXPHOS gene expression; [3]
  GE-HTS: 0.355
OXPHOS gene expression; [4]
  GE-HTS: −0.060
C2C12 myotubes; [3]
  Viability: −0.502
C2C12 myotubes; [4]
  Viability: −0.239

## COC(=O)N/N=C/c1c[n+]([O-])c2ccccc2[n+]1[O-] [carbadox]
[1]; [5]
  ΔΨm: −1.394
nuOXPHOS transcripts; [5]
  nucOX: −0.599
Reactive oxygen species; [5]
  ROS: −0.079
Cytochrome c; [5]
  cyt c: −0.250
mtOXPHOS transcripts; [5]
  mitoOX: −1.076
[2]; [5]
  MTT: −1.334
OXPHOS gene expression; [5]
  GE-HTS: −0.802
C2C12 myotubes; [5]
  Viability: −0.905

## CC1(C)S[C@@H]2[C@H](NC(=O)C(C(=O)O)c3ccccc3)C(=O)N2[C@H]1C(=O)O (some centres unmarked) [carbenicillin]
[1]; [3]
  ΔΨm: 0.298
nuOXPHOS transcripts; [3]
  nucOX: −0.835
Reactive oxygen species; [3]
  ROS: 2.042
Cytochrome c; [3]
  cyt c: −0.074
mtOXPHOS transcripts; [3]
  mitoOX: −0.823
[2]; [3]
  MTT: −0.565
OXPHOS gene expression; [3]
  GE-HTS: −0.869
C2C12 myotubes; [3]
  Viability: −0.524

## Cc1c(C(=O)O)c(O)cc2c1C(=O)c1c(O)c([C@@H]3O[C@H](CO)[C@@H](O)[C@H](O)[C@H]3O)c(O)c(O)c1C2=O [carminic acid]
[1]; [5]
  ΔΨm: −0.378
nuOXPHOS transcripts; [5]
  nucOX: −0.662
Reactive oxygen species; [5]
  ROS: 0.083
Cytochrome c; [5]
  cyt c: −0.243
mtOXPHOS transcripts; [5]
  mitoOX: −0.671
[2]; [5]
  MTT: −1.295
OXPHOS gene expression; [5]
  GE-HTS: −0.727
C2C12 myotubes; [5]
  Viability: −0.905

## C=C1CC[C@H]2O[C@]2(C)CC[C@@H]2[C@@H]1CC2(C)C [carylophyllene oxide]
[1]; [6]
  ΔΨm: −0.246
nuOXPHOS transcripts; [6]
  nucOX: 0.060
Reactive oxygen species; [6]
  ROS: 0.636
Cytochrome c; [6]
  cyt c: 0.321
mtOXPHOS transcripts; [6]
  mitoOX: −0.324
[2]; [6]
  MTT: −0.713
OXPHOS gene expression; [6]
  GE-HTS: −0.087
C2C12 myotubes; [6]
  Viability: −0.547

## CC(=O)Oc1cc(OC(C)=O)c2c(c1)O[C@H](c1ccc(OC(C)=O)c(OC(C)=O)c1)[C@@H](OC(C)=O)C2 [catechin pentaacetate]
[1]; [6]
  ΔΨm: −2.799
nuOXPHOS transcripts; [6]
  nucOX: 0.314
Reactive oxygen species; [6]
  ROS: −1.649
Cytochrome c; [6]
  cyt c: 0.425
mtOXPHOS transcripts; [6]
  mitoOX: 0.161
[2]; [6]
  MTT: −1.126
OXPHOS gene expression; [6]
  GE-HTS: 0.269
C2C12 myotubes; [6]
  Viability: 0.652

## O=C(Oc1cc(OC(=O)c2ccccc2)c2c(c1)O[C@H](c1ccc(OC(=O)c3ccccc3)c(OC(=O)c3ccccc3)c1)[C@@H](OC(=O)c1ccccc1)C2)c1ccccc1 [catechin pentabenzoate]
[1]; [7]
  ΔΨm (composite Z-score): −1.326
nuOXPHOS transcripts; [7]
  nucOX (composite Z-score): −0.815
Reactive oxygen species; [7]
  ROS (composite Z-score): 0.599
Cytochrome c; [7]
  cyt c (composite Z-score): 1.272
mtOXPHOS transcripts; [7]
  mitoOX (composite Z-score): −0.896
[2]; [7]
  MTT (composite Z-score): −1.672
OXPHOS gene expression; [7]
  GE-HTS (composite Z-score): −0.898
C2C12 myotubes; [7]
  Viability (composite Z-score): −1.434

## COc1cc(OC)c2c(c1)O[C@H](c1ccc(OC)c(OC)c1)[C@@H](O)C2 [catechin tetramethylether]
[1]; [6]
  ΔΨm: −0.172
nuOXPHOS transcripts; [6]
  nucOX: −1.106
Reactive oxygen species; [6]
  ROS: −0.094
Cytochrome c; [6]
  cyt c: 0.586
mtOXPHOS transcripts; [6]
  mitoOX: −0.798
[2]; [6]
  MTT: −0.573
OXPHOS gene expression; [6]
  GE-HTS: −1.052
C2C12 myotubes; [6]
  Viability: 0.435

## COc1cc(O)c(C(=O)c2ccccc2)cc1O [cearoin]
[1]; [8]
  ΔΨm: −1.006
nuOXPHOS transcripts; [8]
  nucOX: −1.568
Reactive oxygen species; [8]
  ROS: −2.274
Cytochrome c; [8]
  cyt c: −1.478
mtOXPHOS transcripts; [8]
  mitoOX: −1.603
[2]; [8]
  MTT: −2.331
OXPHOS gene expression; [8]
  GE-HTS: −1.672
C2C12 myotubes; [8]
  Viability: −1.078

## CC(=O)O[C@]1(C)CC[C@@]23C[C@@H]1C(C)(C)[C@@H]2CC[C@H]3C [cedryl acetate]
[1]; [6]
  ΔΨm: −0.042
nuOXPHOS transcripts; [6]
  nucOX: 0.184
Reactive oxygen species; [6]
  ROS: 1.566
Cytochrome c; [6]
  cyt c: 0.388
mtOXPHOS transcripts; [6]
  mitoOX: −0.149
[2]; [6]
  MTT: −0.176
OXPHOS gene expression; [6]
  GE-HTS: 0.067
C2C12 myotubes; [6]
  Viability: −0.311

## N[C@@H](C(=O)N[C@@H]1C(=O)N2C(C(=O)O)=C(Cl)CS[C@H]12)c1ccccc1 [cefaclor]
[1]
  ΔΨm: −0.759
[1]; [5]
  ΔΨm: −0.772
nuOXPHOS transcripts
  nucOX: 0.535
nuOXPHOS transcripts; [5]
  nucOX: −0.506
Reactive oxygen species
  ROS: 0.387
Reactive oxygen species; [5]
  ROS: 0.297
Cytochrome c
  cyt c: −0.764
Cytochrome c; [5]
  cyt c: 0.231
mtOXPHOS transcripts
  mitoOX: −0.161
mtOXPHOS transcripts; [5]
  mitoOX: −0.435
[2]
  MTT: −1.329
[2]; [5]
  MTT: −0.752
OXPHOS gene expression
  GE-HTS: 0.331
OXPHOS gene expression; [5]
  GE-HTS: −0.547
C2C12 myotubes
  Viability: 0.762
C2C12 myotubes; [5]
  Viability: −0.091
